Earlier results on 2 compounds are cited in US7700778B2, “Acylated piperidine derivatives as melanocortin-4 receptor agonists” (Merck Sharp & Dohme Corp., priority 2001, dated 2010).

Series [1] relates to males with psychogenic erectile dysfunction.
For series [2] the following is noted: in vivo, po.

Consider `Cc1ccc(N(CC2=NCCN2)c2cccc(O)c2)cc1` [phentolamine], for which, in the series with men (after an oral dose), the duration of effect is 2 h and the onset of action was 5 to 30 min. The “share of men/patients in whom effective (adequate response)” value with men (oral) was 35-40%.

For “Ac-Nle-c[Asp-His-DPhe-Arg-Trp-Lys]-NH2 [MT-II]”, in series [1] (in vivo), the duration of action result is “approximately 2.5 hours” and the “time to onset of erection” value was 10 to 20 min. Besides, in series [1] (injected intramuscularly or subcutaneously), the response rate is reported as 75%. Further, the “absorption into the systemic circulation” value in series [2] was “not absorbed into the systemic circulation”.
